Experimental data: US20140309210A1, “INDAZOLE COMPOUNDS, COMPOSITIONS AND METHODS OF USE THEREOF” (Genentech, Inc., priority 2011, published 2014)

Biological target: T1, purified ITK (Invitrogen PV3875) (Homo sapiens, UniProt Q08881)
T1 construct: purchased Invitrogen PV3875
T1 sequence (Q08881 1-620): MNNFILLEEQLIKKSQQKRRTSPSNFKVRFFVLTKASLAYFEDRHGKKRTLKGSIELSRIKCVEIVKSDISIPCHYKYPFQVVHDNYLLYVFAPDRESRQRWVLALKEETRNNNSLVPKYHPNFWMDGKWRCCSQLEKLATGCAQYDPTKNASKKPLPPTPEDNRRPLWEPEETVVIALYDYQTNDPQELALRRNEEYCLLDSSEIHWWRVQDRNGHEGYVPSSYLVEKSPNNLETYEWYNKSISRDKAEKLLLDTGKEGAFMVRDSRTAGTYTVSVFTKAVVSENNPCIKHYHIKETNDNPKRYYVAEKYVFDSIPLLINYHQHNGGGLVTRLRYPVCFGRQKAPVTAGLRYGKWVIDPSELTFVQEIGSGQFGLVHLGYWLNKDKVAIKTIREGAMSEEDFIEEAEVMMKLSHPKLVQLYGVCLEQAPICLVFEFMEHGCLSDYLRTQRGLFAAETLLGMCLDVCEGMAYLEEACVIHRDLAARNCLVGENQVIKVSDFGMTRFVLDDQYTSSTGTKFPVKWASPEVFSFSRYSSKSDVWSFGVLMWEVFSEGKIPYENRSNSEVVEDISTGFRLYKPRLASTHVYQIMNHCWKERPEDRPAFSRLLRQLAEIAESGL
Experiment: ITK peptide phosphorylation assay (Caliper LabChip or LCMS)
Format: biochemical
Experimental: The ability of purified ITK (Invitrogen PV3875) to catalyze peptide phosphorylation is monitored using a Caliper LabChip 3000 microfluidic unit (Caliper assay) or by liquid chromatography-mass spectrometry (LCMS) using a Waters Acquity system (LCMS assay). […] Reactions are quenched by the addition of 2,2′,2″,2′″-(ethane-1,2-diyldinitrilo)tetraacetic acid (50 mM final). Non-phosphorylated substrate and phosphorylated product peptides are separated and quantified using a Caliper LabChip 3000 instrument. […] Reactions are quenched by the addition of trichloroacetic acid (5% v/v final). Non-phosphorylated substrate and phosphorylated product peptides are separated by ultra performance LC and detected by a coupled triple quadrupole MS device applying multiple reaction monitoring (MRM) for quantification. The area of the MRM-extracted mass signal is used to assess the inhibition by test compounds. Equilibrium dissociation constant (Ki) values for ITK inhibitors are calculated from plots of activity vs. inhibitor concentration using Morrison's quadratic equation that accounts for the potential of tight binding, and by also applying the conversion factor that accounts for competitive inhibition and the concentration of ATP used in the assay relative to its apparent Michaelis constant (Km,app).

[1] = Table 2, Examples 1-140, class symbols
[2] = Table 3, specific values for certain examples

Row | Ki [1] [nM] | Ki [2] [nM] | SMILES
1 | 1 to 100 |  | COc1cccc(Cn2cc(NC(=O)c3n[nH]c4ccccc34)cn2)c1 [Example 67, N-(1-(3-methoxybenzyl)-1H-pyrazol-4-yl)-1H-indazole-3-carboxamide]
2 | 1 to 100 |  | O=C(Nc1cnn(Cc2ccc(F)c(F)c2)c1)c1n[nH]c2ccccc12 [Example 68, N-(1-(3,4-difluorobenzyl)-1H-pyrazol-4-yl)-1H-indazole-3-carboxamide]
3 | 1 to 100 |  | O=C(Nc1cnn(Cc2cc(F)ccc2F)c1)c1n[nH]c2ccccc12 [Example 69, N-(1-(2,5-difluorobenzyl)-1H-pyrazol-4-yl)-1H-indazole-3-carboxamide]
4 | 1 to 100 |  | COc1cc(Cn2cc(NC(=O)c3n[nH]c4ccccc34)cn2)cc(OC)c1 [Example 70, N-(1-(3,5-dimethoxybenzyl)-1H-pyrazol-4-yl)-1H-indazole-3-carboxamide]
5 | 1 to 100 |  | O=C(Nc1cnn(Cc2ccc(F)cc2F)c1)c1n[nH]c2ccccc12 [Example 71, N-(1-(2,4-difluorobenzyl)-1H-pyrazol-4-yl)-1H-indazole-3-carboxamide]
6 | > 100 |  | O=C(Nc1cnn(Cc2ccc(OC(F)(F)F)cc2)c1)c1n[nH]c2ccccc12 [Example 72, N-(1-(4-(trifluoromethoxy)benzyl)-1H-pyrazol-4-yl)-1H-indazole-3-carboxamide]
7 | > 100 |  | O=C(Nc1cnn(Cc2ccc(Cl)cc2Cl)c1)c1n[nH]c2ccccc12 [Example 73, N-(1-(2,4-dichlorobenzyl)-1H-pyrazol-4-yl)-1H-indazole-3-carboxamide]
8 | > 100 |  | O=C(Nc1cnn(CCCN2CCCC(O)C2)c1)c1n[nH]c2ccccc12 (stereo not shown) [Example 74, N-(1-(3-(3-Hydroxypiperidin-1-yl)propyl)-1H-pyrazol-4-yl)-1H-indazole-3-carboxamide]
9 | > 100 | 428 | O=C(Nc1cnn(CCN2CCCC(O)C2)c1)c1n[nH]c2ccccc12 (stereo not shown) [Example 75, N-(1-(2-(3-Hydroxypiperidin-1-yl)ethyl)-1H-pyrazol-4-yl)-1H-indazole-3-carboxamide]
10 | > 100 |  | O=C(Nc1cnn(CCCCN2CCCC(O)C2)c1)c1n[nH]c2ccccc12 (stereo not shown) [Example 76, N-(1-(4-(3-Hydroxypiperidin-1-yl)butyl)-1H-pyrazol-4-yl)-1H-indazole-3-carboxamide]
11 | > 100 | 307 | CC(C)(c1cccc(C#N)c1)n1cc(NC(=O)c2n[nH]c3ccccc23)cn1 [Example 77, N-(1-(2-(3-Cyanophenyl)propan-2-yl)-1H-pyrazol-4-yl)-1H-indazole-3-carboxamide]
12 | > 100 |  | N#Cc1cccc(Cn2cc(NC(=O)c3n[nH]c4ccc(-c5ccccc5)cc34)cn2)c1 [Example 79, N-(1-(3-Cyanobenzyl)-1H-pyrazol-4-yl)-5-phenyl-1H-indazole-3-carboxamide]
13 | 1 to 100 |  | N#Cc1cccc(Cn2cc(NC(=O)c3n[nH]c4ccc(-c5cc[nH]n5)cc34)cn2)c1 [Example 80, N-(1-(3-Cyanobenzyl)-1H-pyrazol-4-yl)-5-(1H-pyrazol-3-yl)-1H-indazole-3-carboxamide]
14 | 1 to 100 |  | N#Cc1cccc(Cn2cc(NC(=O)c3n[nH]c4ccc(-c5cn[nH]c5)cc34)cn2)c1 [Example 81, N-(1-(3-Cyanobenzyl)-1H-pyrazol-4-yl)-5-(1H-pyrazol-4-yl)-1H-indazole-3-carboxamide]
15 | 1 to 100 |  | N#Cc1cccc(Cn2cc(NC(=O)c3n[nH]c4ccc(CCO)cc34)cn2)c1 [Example 82]
16 | 1 to 100 |  | CCn1cc(NC(=O)c2n[nH]c3cc(-c4cn[nH]c4)ccc23)cn1 [Example 83, N-(1-ethyl-1H-pyrazol-4-yl)-6-(1H-pyrazol-4-yl)-1H-indazole-3-carboxamide]

Row | Ki [1] [nM] | Ki [2] [nM] | SMILES
17 | 1 to 100 |  | N#Cc1cncc(-c2ccc3c(C(=O)Nc4cnn(Cc5ccccc5)c4)n[nH]c3c2)c1 [Example 84, N-(1-benzyl-1H-pyrazol-4-yl)-6-(5-cyanopyridin-3-yl)-1H-indazole-3-carboxamide]
18 | 1 to 100 |  | COc1cncc(-c2ccc3c(C(=O)Nc4cnn(Cc5ccccc5)c4)n[nH]c3c2)c1 [Example 85, N-(1-benzyl-1H-pyrazol-4-yl)-6-(5-methoxypyridin-3-yl)-1H-indazole-3-carboxamide]
19 | 1 to 100 |  | N#Cc1cccc(Cn2cc(NC(=O)c3n[nH]c4cc(N5CCCC5)ccc34)cn2)c1 [Example 86, N-(1-(3-cyanobenzyl)-1H-pyrazol-4-yl)-6-(pyrrolidin-1-yl)-1H-indazole-3-carboxamide]
20 | 1 to 100 |  | Cn1cnc(-c2ccc3c(C(=O)Nc4cnn(Cc5ccccc5)c4)n[nH]c3c2)c1 [Example 87, N-(1-benzyl-1H-pyrazol-4-yl)-6-(1-methyl-1H-imidazol-4-yl)-1H-indazole-3-carboxamide]
21 | 1 to 100 |  | N#Cc1cccc(Cn2cc(NC(=O)c3n[nH]c4cc(N5CCC(O)C5)ccc34)cn2)c1 (stereo not shown) [Example 88, N-(1-(3-cyanobenzyl)-1H-pyrazol-4-yl)-6-(3-hydroxypyrrolidin-1-yl)-1H-indazole-3-carboxamide]
22 | 1 to 100 |  | CC(C)(O)CNCc1cccc(Cn2cc(NC(=O)c3n[nH]c4ccccc34)cn2)c1 [Example 90, N-(1-(3-((2-hydroxy-2-methylpropylamino)methyl)benzyl)-1H-pyrazol-4-yl)-1H-indazole-3-carboxamide]
23 | 1 to 100 |  | O=C(Nc1cnn(Cc2cccc(CN3CCC3)c2)c1)c1n[nH]c2ccccc12 [Example 91, N-(1-(3-(azetidin-1-ylmethyl)benzyl)-1H-pyrazol-4-yl)-1H-indazole-3-carboxamide]
24 | 1 to 100 |  | O=C(Nc1cnn(Cc2cccc(CNCC(F)F)c2)c1)c1n[nH]c2ccccc12 [Example 92, N-(1-(3-((2,2-difluoroethylamino)methyl)benzyl)-1H-pyrazol-4-yl)-1H-indazole-3-carboxamide]
25 | 1 to 100 |  | CC(O)CNCc1cccc(Cn2cc(NC(=O)c3n[nH]c4ccccc34)cn2)c1 (stereo not shown) [Example 93, N-(1-(3-((2-hydroxypropylamino)methyl)benzyl)-1H-pyrazol-4-yl)-1H-indazole-3-carboxamide]
26 | 1 to 100 |  | O=C(Nc1cnn(Cc2cccc(CNC3CCC3)c2)c1)c1n[nH]c2ccccc12 [Example 94, N-(1-(3-((cyclobutylamino)methyl)benzyl)-1H-pyrazol-4-yl)-1H-indazole-3-carboxamide]
27 | 1 to 100 |  | O=C(Nc1cnn(Cc2cccc(CNCC3CC3)c2)c1)c1n[nH]c2ccccc12 [Example 95, N-(1-(3-((cyclopropylmethylamino)methyl)benzyl)-1H-pyrazol-4-yl)-1H-indazole-3-carboxamide]
28 | 1 to 100 | 38.7 | O=C(Nc1cnn(Cc2cccc(CNCCO)c2)c1)c1n[nH]c2ccccc12 [Example 96, N-(1-(3-((2-hydroxyethylamino)methyl)benzyl)-1H-pyrazol-4-yl)-1H-indazole-3-carboxamide]
29 | 1 to 100 |  | CCCNCc1cccc(Cn2cc(NC(=O)c3n[nH]c4ccccc34)cn2)c1 [Example 97, N-(1-(3-((propylamino)methyl)benzyl)-1H-pyrazol-4-yl)-1H-indazole-3-carboxamide]
30 | 1 to 100 |  | O=C(Nc1cnn(Cc2cccc(CNC3CC3)c2)c1)c1n[nH]c2ccccc12 [Example 98, N-(1-(3-((cyclopropylamino)methyl)benzyl)-1H-pyrazol-4-yl)-1H-indazole-3-carboxamide]
31 | 1 to 100 |  | CCNCc1cccc(Cn2cc(NC(=O)c3n[nH]c4ccccc34)cn2)c1 [Example 99, N-(1-(3-((ethylamino)methyl)benzyl)-1H-pyrazol-4-yl)-1H-indazole-3-carboxamide]
